Assay results from US20220127297A1, “Novel Antibacterial 3"-Derivatives Of 4,6-Disubstituted 2,5-Dideoxystreptamine Aminoglycoside Antibiotics” (AGILeBiotics B.V., priority 2018, published 2022).
In brackets after ≈: the same amount, converted by molar mass.

Experiments:
Assay in all cases: MIC determination at Fidelta, clinical isolates
Type in all cases: cell-based
[1] = test system: clinical isolates of multidrug-resistant Pseudomonas aeruginosa (and ATCC27853)
Method in brief: (§1)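 Clinical isolates and ATCC reference strains revived on MH agar, tested by broth microdilution in Mueller Hinton broth. Compounds from 5 mg/mL DMSO stocks, two-fold serial dilutions, final 64-0.125 μg/mL.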

[2] = test system: clinical isolates of multidrug-resistant Acinetobacter baumannii (and ATCC17978)
Method in brief: as §1

[3] = test system: clinical isolates of methicillin-resistant Staphylococcus aureus (MRSA)
Method in brief: as §1

[4] = test system: clinical isolates of Vancomycin-resistant Enterococcus faecium (VRE)
Method in brief: as §1

[5] = AB-2017, Bronchial aspirate/CRAB
[6] = AB-2019, Bronchial aspirate/CRAB

SMILES | MIC90 ([1]; P. aeruginosa ATCC27853 strain) [µg/mL] | MIC90 ([1]; PA-1948, Wound/OXA-2) [µg/mL] | MIC90 ([1]; PA-1949, Urine/OXA-2) [µg/mL] | MIC90 ([1]; PA-1950, Sputum/OXA-2) [µg/mL] | MIC90 ([1]; PA-1952, Wound/OXA-2) [µg/mL] | MIC90 ([1]; PA-1953, Urine/MDR) [µg/mL] | MIC90 ([1]; PA-1954, Sputum/OXA-2) [µg/mL] | MIC90 ([2]; A. baumannii ATCC17978 strain) [µg/mL] | MIC90 ([2]; AB-1931, Urine/CRAB) [µg/mL] | MIC90 ([2]; AB-1932, Urine (catheter)/CRAB) [µg/mL] | MIC90 [2, 5] [µg/mL] | MIC90 ([2]; AB-2018, Skin/CRAB) [µg/mL] | MIC90 [2, 6] [µg/mL] | MIC90 ([3]; MRSA-1995, Liquor) [µg/mL] | MIC90 ([3]; MRSA-1998, Wound) [µg/mL] | MIC90 ([3]; MRSA-1999, Skin) [µg/mL] | MIC90 ([3]; MRSA-2003, Wound) [µg/mL] | MIC90 ([4]; VRE-2005, Urine) [µg/mL] | MIC90 ([4]; VRE-2006, Urine) [µg/mL] | MIC90 ([4]; VRE-2007, Urine) [µg/mL] | also measured
N=C(NCCN)NC1C(O)[C@@H](CO)OC(OC2C(F)[C@H](O[C@H]3OC(CN)[C@@H](O)CC3N)C(N)C[C@H]2NC(=O)[C@@H](O)CCN)[C@@H]1O (some centres unmarked) [ABX5020, Tobra-AHB-F-Gua-2-amino-ethyl] | 0.25 (≈ 0.381 µM) | 1 (≈ 1.53 µM) | 8 (≈ 12.2 µM) | 1 (≈ 1.53 µM) | 8 (≈ 12.2 µM) | 16 (≈ 24.4 µM) | 0.5 (≈ 0.763 µM) | 0.5 (≈ 0.763 µM) | 1 (≈ 1.53 µM) | 1 (≈ 1.53 µM) | 1 (≈ 1.53 µM) | 2 (≈ 3.05 µM) | 2 (≈ 3.05 µM) | – | – | – | – | – | – | – | –
N=C(NC[C@@H]1CCNC1)NC1[C@@H](O)C(OC2[C@@H](F)[C@H](O[C@H]3OC(CN)[C@@H](O)CC3N)C(N)C[C@H]2NC(=O)[C@@H](O)CCN)O[C@H](CO)[C@H]1O (stereo partly drawn) [ABX5039, Tobra-AHB-F-Gua (R) pyrrolidine-3-ylmethyl] | 0.5 (≈ 0.719 µM) | 1 (≈ 1.44 µM) | 8 (≈ 11.5 µM) | 1 (≈ 1.44 µM) | 4 (≈ 5.75 µM) | 32 (≈ 46 µM) | 1 (≈ 1.44 µM) | 0.5 (≈ 0.719 µM) | 1 (≈ 1.44 µM) | 1 (≈ 1.44 µM) | 1 (≈ 1.44 µM) | 1 (≈ 1.44 µM) | 1 (≈ 1.44 µM) | 0.5 (≈ 0.719 µM) | 0.25 (≈ 0.359 µM) | 0.25 (≈ 0.359 µM) | 0.5 (≈ 0.719 µM) | 4 (≈ 5.75 µM) | 16 (≈ 23 µM) | 4 (≈ 5.75 µM) | MIC90 ([1]; PA-1967, Blood/VIM): 4 µg/mL (≈ 5.75 µM); MIC90 ([2]; AB-1964, Blood): 1 µg/mL (≈ 1.44 µM); MIC90 ([2]; AB-2025, Skin): 1 µg/mL (≈ 1.44 µM); MIC90 ([2]; AB-2026, Skin): 2 µg/mL (≈ 2.87 µM); MIC90 ([4]; VRE-2008, Urine): 4 µg/mL (≈ 5.75 µM); MIC90 ([4]; VRE-2009, Urine): 4 µg/mL (≈ 5.75 µM); MIC90 ([4]; VRE-2010, Urine): 8 µg/mL (≈ 11.5 µM); MIC90 ([4]; VRE-2011, Rectum): 8 µg/mL (≈ 11.5 µM); MIC90 ([4]; VRE-2012, Rectum): 4 µg/mL (≈ 5.75 µM); MIC90 ([4]; VRE-2013, Rectum): 4 µg/mL (≈ 5.75 µM)
N=C(N)NC1C(O)[C@@H](CO)OC(OC2C(F)[C@H](O[C@H]3OC(CN)[C@@H](O)CC3N)C(N)C[C@H]2NC(=O)[C@@H](O)CCN)[C@@H]1O (some centres unmarked) [ABX5006, Tobra-AHB-F-Gua] | 0.25 (≈ 0.408 µM) | 0.5 (≈ 0.816 µM) | 8 (≈ 13.1 µM) | 1 (≈ 1.63 µM) | 4 (≈ 6.53 µM) | 8 (≈ 13.1 µM) | 0.5 (≈ 0.816 µM) | <0.125 | 0.5 (≈ 0.816 µM) | 1 (≈ 1.63 µM) | 0.5 (≈ 0.816 µM) | 1 (≈ 1.63 µM) | 1 (≈ 1.63 µM) | 0.5 (≈ 0.816 µM) | 0.25 (≈ 0.408 µM) | 0.5 (≈ 0.816 µM) | 0.5 (≈ 0.816 µM) | 4 (≈ 6.53 µM) | 32 (≈ 52.2 µM) | 4 (≈ 6.53 µM) | MIC90 ([1]; PA-1967, Blood/VIM): 4 µg/mL (≈ 6.53 µM); MIC90 ([2]; AB-1964, Blood): 1 µg/mL (≈ 1.63 µM); MIC90 ([2]; AB-2025, Skin): 0.5 µg/mL (≈ 0.816 µM); MIC90 ([2]; AB-2026, Skin): 1 µg/mL (≈ 1.63 µM); MIC90 ([4]; VRE-2008, Urine): 8 µg/mL (≈ 13.1 µM); MIC90 ([4]; VRE-2009, Urine): 16 µg/mL (≈ 26.1 µM); MIC90 ([4]; VRE-2010, Urine): 8 µg/mL (≈ 13.1 µM); MIC90 ([4]; VRE-2011, Rectum): 16 µg/mL (≈ 26.1 µM); MIC90 ([4]; VRE-2012, Rectum): 4 µg/mL (≈ 6.53 µM); MIC90 ([4]; VRE-2013, Rectum): 4 µg/mL (≈ 6.53 µM)
N=C(NC[C@@H]1CCCN1)NC1[C@@H](O)C(OC2[C@@H](F)[C@H](O[C@H]3OC(CN)[C@@H](O)CC3N)C(N)C[C@H]2NC(=O)[C@@H](O)CCN)O[C@H](CO)[C@H]1O (stereo partly drawn) [ABX5026, Tobra-AHB-F-Gua (S) pyrrolidine-2-yl-methyl] | 1 (≈ 1.44 µM) | 1 (≈ 1.44 µM) | 16 (≈ 23 µM) | 1 (≈ 1.44 µM) | 8 (≈ 11.5 µM) | 32 (≈ 46 µM) | 1 (≈ 1.44 µM) | 0.5 (≈ 0.719 µM) | 1 (≈ 1.44 µM) | 1 (≈ 1.44 µM) | 1 (≈ 1.44 µM) | 1 (≈ 1.44 µM) | 1 (≈ 1.44 µM) | 0.5 (≈ 0.719 µM) | 0.25 (≈ 0.359 µM) | 0.5 (≈ 0.719 µM) | 0.5 (≈ 0.719 µM) | 4 (≈ 5.75 µM) | 8 (≈ 11.5 µM) | 4 (≈ 5.75 µM) | MIC90 ([1]; PA-1967, Blood/VIM): 8 µg/mL (≈ 11.5 µM); MIC90 ([2]; AB-1964, Blood): 2 µg/mL (≈ 2.87 µM); MIC90 ([2]; AB-2025, Skin): 1 µg/mL (≈ 1.44 µM); MIC90 ([2]; AB-2026, Skin): 2 µg/mL (≈ 2.87 µM); MIC90 ([4]; VRE-2008, Urine): 4 µg/mL (≈ 5.75 µM); MIC90 ([4]; VRE-2009, Urine): 8 µg/mL (≈ 11.5 µM); MIC90 ([4]; VRE-2010, Urine): 8 µg/mL (≈ 11.5 µM); MIC90 ([4]; VRE-2011, Rectum): 8 µg/mL (≈ 11.5 µM); MIC90 ([4]; VRE-2012, Rectum): 4 µg/mL (≈ 5.75 µM); MIC90 ([4]; VRE-2013, Rectum): 4 µg/mL (≈ 5.75 µM)
NCC[C@H](O)C(=O)N[C@@H]1C[C@H](N)[C@@H](O[C@H]2O[C@H](CN)[C@@H](O)[C@H](O)[C@H]2O)[C@H](O)[C@H]1O[C@H]1O[C@H](CO)[C@@H](O)[C@H](N)[C@H]1O [Amikacin, amikacin, reference compound] | – | – | – | – | – | – | – | – | – | – | – | – | – | 4 (≈ 6.83 µM) | 4 (≈ 6.83 µM) | 8 (≈ 13.7 µM) | 4 (≈ 6.83 µM) | > 64 | > 64 | > 64 | MIC90 ([4]; VRE-2008, Urine): > 54 µg/mL; MIC90 ([4]; VRE-2009, Urine): > 64 µg/mL; MIC90 ([4]; VRE-2010, Urine): > 64 µg/mL; MIC90 ([4]; VRE-2011, Rectum): > 64 µg/mL; MIC90 ([4]; VRE-2012, Rectum): > 64 µg/mL; MIC90 ([4]; VRE-2013, Rectum): > 64 µg/mL
